Reference: ChEMBL document CHEMBL1155305, “Discovery of a new series of monoamine reuptake inhibitors, the 1-amino-3-(1H-indol-1-yl)-3-phenylpropan-2-ols” (Bioorg Med Chem Lett, 2009)
The source made the active and inactive calls. No cut-off for these calls is given here.

Tests used:
[1] = molecular target: T1, Sodium-dependent noradrenaline transporter (Homo sapiens, UniProt P23975); assay: Inhibition of norepinephrine reuptake at human NET expressed in MDCK-Net6 cells at 1000 nM; assay type: cell-based
[2] = molecular target: Sodium-dependent serotonin transporter (Homo sapiens, UniProt P31645); assay type: cell-based, JAR
Description: Inhibition of serotonin uptake at human SERT expressed in JAR cells

MDCK-Net6 = assay: Selectivity index, ratio of IC50 for human SERT to IC50 for human NET uptake in MDCK-Net6 cell; assay type: cell-based
[3] = molecular target: Sodium-dependent dopamine transporter (Homo sapiens) (UniProt Q01959); assay: Displacement of [3H]WIN-35428 from human recombinant DAT expressed in CHO cells at 1 uM; assay type: cell-based
[4] = molecular target: T1, Sodium-dependent noradrenaline transporter
[5] = molecular target: T2, 5-hydroxytryptamine receptor 1A (Homo sapiens) (UniProt P08908); assay: Binding affinity to 5-HT1A receptor
T2 sequence (whole entry): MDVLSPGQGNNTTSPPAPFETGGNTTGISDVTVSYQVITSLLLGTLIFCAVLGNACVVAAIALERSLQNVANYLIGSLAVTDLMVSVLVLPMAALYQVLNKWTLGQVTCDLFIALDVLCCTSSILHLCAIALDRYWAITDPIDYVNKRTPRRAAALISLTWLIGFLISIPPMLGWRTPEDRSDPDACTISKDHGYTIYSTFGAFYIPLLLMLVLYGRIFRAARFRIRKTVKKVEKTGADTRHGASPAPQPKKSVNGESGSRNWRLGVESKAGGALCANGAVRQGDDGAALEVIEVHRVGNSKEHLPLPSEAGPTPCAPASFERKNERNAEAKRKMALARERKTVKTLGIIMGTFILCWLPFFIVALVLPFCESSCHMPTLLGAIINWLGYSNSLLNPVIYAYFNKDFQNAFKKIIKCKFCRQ

[6] = molecular target: 5-hydroxytryptamine receptor 2A (Homo sapiens) (UniProt P28223); assay: Binding affinity to 5-HT2A receptor
[7] = Binding affinity to alpha1 adrenergic receptor
[8] = Binding affinity to alpha2 adrenergic receptor
[9] = Membrane permeability by PAMPA assay; assay type: ADME; conditions: read-out: permeability
CYP3A4 = CYP3A4 (Homo sapiens, UniProt P08684); assay: Inhibition of CYP3A4 at 3 uM; assay type: ADME
CYP2D6 = CYP2D6 (Homo sapiens, UniProt P10635); assay: Inhibition of CYP2D6 at 3 uM; assay type: ADME
CYP2C9 = CYP2C9 (Homo sapiens, UniProt P11712); assay: Inhibition of CYP2C9 at 3 uM; assay type: ADME
[10] = Half life in rat liver microsomes at 1 uM; assay type: ADME, Microsome
[11] = Half life in dog liver microsomes at 1 uM; assay type: ADME, Canis lupus familiaris, Microsome
[12] = Half life in monkey liver microsomes at 1 uM; assay type: ADME, Macaca mulatta, Microsome; conditions: rhesus monkey
[13] = Half life in human liver microsomes at 1 uM; assay type: ADME, Microsome
[14] = Aqueous solubility at pH 7.4; assay type: physicochemical

T1 sequence (P23975 whole entry): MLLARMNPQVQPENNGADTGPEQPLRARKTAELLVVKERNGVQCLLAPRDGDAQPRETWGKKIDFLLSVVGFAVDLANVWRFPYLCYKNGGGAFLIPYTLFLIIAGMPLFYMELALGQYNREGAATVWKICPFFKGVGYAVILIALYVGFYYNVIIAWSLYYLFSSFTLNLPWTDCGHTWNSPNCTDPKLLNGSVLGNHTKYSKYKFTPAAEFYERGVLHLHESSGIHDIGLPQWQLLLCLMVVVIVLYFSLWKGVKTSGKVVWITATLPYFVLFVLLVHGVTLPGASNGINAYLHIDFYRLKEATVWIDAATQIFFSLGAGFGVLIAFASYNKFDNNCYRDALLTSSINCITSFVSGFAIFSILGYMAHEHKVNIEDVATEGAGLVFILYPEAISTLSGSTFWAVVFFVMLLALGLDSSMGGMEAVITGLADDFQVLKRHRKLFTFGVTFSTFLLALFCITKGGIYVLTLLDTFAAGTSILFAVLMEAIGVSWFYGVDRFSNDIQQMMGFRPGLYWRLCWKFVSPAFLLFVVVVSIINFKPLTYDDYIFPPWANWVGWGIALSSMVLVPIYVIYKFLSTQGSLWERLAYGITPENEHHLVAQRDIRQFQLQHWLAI
Sodium-dependent dopamine transporter (Homo sapiens), sequence (Q01959 whole entry): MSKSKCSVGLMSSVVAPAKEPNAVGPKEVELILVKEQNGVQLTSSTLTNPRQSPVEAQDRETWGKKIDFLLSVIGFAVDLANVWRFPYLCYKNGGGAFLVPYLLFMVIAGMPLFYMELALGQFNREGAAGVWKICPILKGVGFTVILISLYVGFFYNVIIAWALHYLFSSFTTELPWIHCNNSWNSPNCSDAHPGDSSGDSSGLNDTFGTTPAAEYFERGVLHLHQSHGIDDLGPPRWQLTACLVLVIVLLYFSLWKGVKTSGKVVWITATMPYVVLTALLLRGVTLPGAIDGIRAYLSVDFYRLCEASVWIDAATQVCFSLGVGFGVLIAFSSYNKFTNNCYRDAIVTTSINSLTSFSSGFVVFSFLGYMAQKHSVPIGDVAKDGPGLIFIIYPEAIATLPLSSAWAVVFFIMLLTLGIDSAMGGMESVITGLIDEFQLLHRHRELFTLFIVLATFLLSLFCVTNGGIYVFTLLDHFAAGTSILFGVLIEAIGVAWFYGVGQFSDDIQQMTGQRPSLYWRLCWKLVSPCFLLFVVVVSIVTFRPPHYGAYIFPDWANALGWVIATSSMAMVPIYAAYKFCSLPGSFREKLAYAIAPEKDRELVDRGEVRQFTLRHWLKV
Sodium-dependent serotonin transporter, sequence (P31645 whole entry): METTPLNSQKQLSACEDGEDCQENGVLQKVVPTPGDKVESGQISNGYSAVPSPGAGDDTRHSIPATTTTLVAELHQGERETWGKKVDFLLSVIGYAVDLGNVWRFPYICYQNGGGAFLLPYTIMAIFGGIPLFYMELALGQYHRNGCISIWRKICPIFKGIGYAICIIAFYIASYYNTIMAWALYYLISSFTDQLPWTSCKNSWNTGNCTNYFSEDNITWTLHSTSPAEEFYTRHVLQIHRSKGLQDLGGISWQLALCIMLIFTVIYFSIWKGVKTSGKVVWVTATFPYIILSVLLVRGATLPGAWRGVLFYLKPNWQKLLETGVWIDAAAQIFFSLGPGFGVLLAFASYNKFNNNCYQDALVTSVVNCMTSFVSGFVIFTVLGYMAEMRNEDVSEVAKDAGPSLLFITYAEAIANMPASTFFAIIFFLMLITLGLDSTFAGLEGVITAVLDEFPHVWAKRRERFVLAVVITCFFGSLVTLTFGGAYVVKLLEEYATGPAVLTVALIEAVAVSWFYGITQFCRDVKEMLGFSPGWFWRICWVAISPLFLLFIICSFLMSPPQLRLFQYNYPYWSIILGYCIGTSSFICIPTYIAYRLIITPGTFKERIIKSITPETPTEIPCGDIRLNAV
5-hydroxytryptamine receptor 2A (Homo sapiens), sequence (P28223 whole entry): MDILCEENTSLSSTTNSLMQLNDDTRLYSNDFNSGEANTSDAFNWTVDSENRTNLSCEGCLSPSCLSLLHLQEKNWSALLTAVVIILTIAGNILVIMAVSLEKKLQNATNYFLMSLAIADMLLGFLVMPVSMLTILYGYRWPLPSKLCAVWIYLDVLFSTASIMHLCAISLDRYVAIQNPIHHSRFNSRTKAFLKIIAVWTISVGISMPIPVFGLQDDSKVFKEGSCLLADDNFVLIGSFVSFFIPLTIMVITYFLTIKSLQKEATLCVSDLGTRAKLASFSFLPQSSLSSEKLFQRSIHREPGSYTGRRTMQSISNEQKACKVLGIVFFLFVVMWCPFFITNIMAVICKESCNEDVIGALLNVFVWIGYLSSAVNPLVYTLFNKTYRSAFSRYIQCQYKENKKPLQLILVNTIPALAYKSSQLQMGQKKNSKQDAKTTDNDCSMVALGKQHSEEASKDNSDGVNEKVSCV
CYP2C9, sequence (P11712 whole entry): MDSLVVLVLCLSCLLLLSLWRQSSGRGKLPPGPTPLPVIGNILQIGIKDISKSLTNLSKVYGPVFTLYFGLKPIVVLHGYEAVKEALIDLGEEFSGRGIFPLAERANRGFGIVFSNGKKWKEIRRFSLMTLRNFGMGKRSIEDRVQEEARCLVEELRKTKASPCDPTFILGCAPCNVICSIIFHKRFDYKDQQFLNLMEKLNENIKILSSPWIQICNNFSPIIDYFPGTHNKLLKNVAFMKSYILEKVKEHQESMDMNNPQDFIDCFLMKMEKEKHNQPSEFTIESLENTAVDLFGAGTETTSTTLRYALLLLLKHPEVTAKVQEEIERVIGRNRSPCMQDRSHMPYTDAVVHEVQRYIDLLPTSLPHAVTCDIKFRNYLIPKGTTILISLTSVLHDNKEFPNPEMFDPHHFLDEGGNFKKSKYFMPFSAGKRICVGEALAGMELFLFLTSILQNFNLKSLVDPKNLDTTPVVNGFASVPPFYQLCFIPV
CYP2D6, sequence (P10635 whole entry): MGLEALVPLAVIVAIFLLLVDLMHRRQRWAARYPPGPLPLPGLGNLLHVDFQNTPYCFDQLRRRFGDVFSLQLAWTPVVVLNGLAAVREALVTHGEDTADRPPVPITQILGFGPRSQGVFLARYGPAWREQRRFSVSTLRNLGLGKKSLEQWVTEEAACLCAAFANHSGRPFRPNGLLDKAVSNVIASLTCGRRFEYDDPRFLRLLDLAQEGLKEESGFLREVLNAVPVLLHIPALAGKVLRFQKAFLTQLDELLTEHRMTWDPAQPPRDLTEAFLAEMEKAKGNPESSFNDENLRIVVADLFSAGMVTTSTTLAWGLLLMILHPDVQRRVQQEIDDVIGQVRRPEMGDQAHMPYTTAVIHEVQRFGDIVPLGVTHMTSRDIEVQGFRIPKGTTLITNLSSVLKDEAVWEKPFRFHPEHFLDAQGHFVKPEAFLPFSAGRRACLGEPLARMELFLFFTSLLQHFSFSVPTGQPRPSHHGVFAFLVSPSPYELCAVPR
CYP3A4, sequence (P08684 whole entry): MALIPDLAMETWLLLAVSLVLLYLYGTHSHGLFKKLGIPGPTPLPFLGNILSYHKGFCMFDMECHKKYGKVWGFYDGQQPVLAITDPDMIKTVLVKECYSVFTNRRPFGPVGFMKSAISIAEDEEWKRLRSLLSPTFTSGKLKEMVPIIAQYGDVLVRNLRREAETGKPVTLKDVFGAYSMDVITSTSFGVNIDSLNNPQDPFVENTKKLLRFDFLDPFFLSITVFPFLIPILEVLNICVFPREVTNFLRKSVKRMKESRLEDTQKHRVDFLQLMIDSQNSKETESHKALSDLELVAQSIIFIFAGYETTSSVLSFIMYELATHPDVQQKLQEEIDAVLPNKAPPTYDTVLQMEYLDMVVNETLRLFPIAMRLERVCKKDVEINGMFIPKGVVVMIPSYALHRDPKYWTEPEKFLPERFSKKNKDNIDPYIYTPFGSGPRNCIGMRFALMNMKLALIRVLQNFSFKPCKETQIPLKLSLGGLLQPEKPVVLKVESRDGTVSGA

| SMILES | inhibition [1] | IC50 [2] | inhibition [3] | other results |
| --- | --- | --- | --- | --- |
| CCNC[C@H](O)[C@H](c1ccccc1)n1ccc2cc(F)ccc21 (racemic) | 11% | – | – | – |
| Cc1cn([C@@H](c2ccccc2)[C@@H](O)CN)c2ccccc12 (racemic) | – | 299 nM | 6% | Ratio IC50 (MDCK-Net6): 1; IC50 [4]: 321 nM |
| CNC[C@H](O)[C@@H](c1ccccc1)n1ccc2ccccc21 [listing 1 of 2 here] | – | 144 nM | – | – |
| CNC[C@H](O)[C@H](c1ccccc1)n1ccc2cc(F)ccc21 (racemic) | – | 95 nM | – | Ratio IC50 (MDCK-Net6): 1; IC50 [4]: 118 nM |
| CNC[C@H](O)[C@H](c1ccccc1)n1ccc2cc(OC)ccc21 (racemic) | – | 31 nM | 2% | Ratio IC50 (MDCK-Net6): 0.1; IC50 [4]: 230 nM |
| O[C@@H](CNCC1CCCCC1)[C@H](c1ccccc1)n1ccc2ccccc21 (racemic) | 41% | 2830 nM | – | – |
| CN1CCN(C[C@H](O)[C@H](c2ccccc2)n2ccc3ccccc32)CC1 (racemic) | 5% | – | – | – |
| CCNC[C@H](O)[C@H](c1ccccc1)n1ccc2ccccc21 (racemic) | – | 298 nM | – | Ratio IC50 (MDCK-Net6): 0.2; IC50 [4]: 1200 nM |
| CNC[C@H](O)[C@H](c1ccccc1)n1ccc2ccccc21 | – | 918 nM | 0% | – |
| CCNC[C@H](O)[C@H](c1ccccc1)n1cc(C)c2ccccc21 (racemic) | – | 2200 nM | 0% | Ratio IC50 (MDCK-Net6): 2; IC50 [4]: 1100 nM |
| CNC[C@@H](O)[C@@H](c1ccccc1)n1ccc2ccccc21 | – | 161 nM | 31% | – |
| CNC[C@H](O)[C@H](c1ccccc1)n1cc(C)c2ccccc21 (racemic) | – | 251 nM | 0% | – |
| NC[C@H](O)[C@H](c1ccccc1)n1ccc2ccccc21 (racemic) | – | 50 nM | 7% | Ratio IC50 (MDCK-Net6): 0.1 |
| O[C@@H](CN1CCOCC1)[C@H](c1ccccc1)n1ccc2ccccc21 (racemic) | 18% | – | – | – |
| CNC[C@H](O)[C@@H](c1ccccc1)n1ccc2ccccc21 (stereo in doubt) [listing 1 of 2 here] | – | 74 nM | – | – |
| CNC[C@@H](O)[C@H](c1ccccc1)n1ccc2ccccc21 (stereo in doubt) [listing 1 of 2 here] | – | 126 nM | – | – |

| SMILES | inhibition [1] | IC50 [2] | inhibition [3] | other results |
| --- | --- | --- | --- | --- |
| CNC[C@H](O)[C@@H](c1ccccc1)n1ccc2ccccc21 [listing 2 of 2 here] | – | – | 18% | – |
| CNC[C@H](O)[C@@H](c1ccccc1)n1ccc2ccccc21 (stereo in doubt) [listing 2 of 2 here] | – | – | 4% | – |
| CCN(C)C[C@H](O)[C@H](c1ccccc1)n1ccc2ccccc21 (racemic) | 38% | – | – | – |
| CN(C)C[C@H](O)[C@H](c1ccccc1)n1ccc2ccccc21 (racemic) | 25% | – | – | – |
| CNC[C@@H](O)[C@H](c1ccccc1)n1ccc2ccccc21 [listing 1 of 2 here] | – | – | 19% | Activity [5]: inactive; Activity [6]: inactive; Activity [7]: inactive; Activity [8]: inactive |
| CNC[C@@H](O)[C@H](c1ccccc1)n1ccc2ccccc21 [listing 2 of 2 here] | – | 358 nM | – | Papp [9]: 4.6 ×10⁻⁶ cm/s; inhibition at 3 µM (CYP3A4): < 20%; inhibition at 3 µM (CYP2D6): < 20%; inhibition at 3 µM (CYP2C9): < 20%; half-life at 1 µM [10]: 9.8 min; half-life at 1 µM [11]: 15.9 min; half-life at 1 µM [12]: 9.7 min; half-life at 1 µM [13]: > 60 min; solubility [14]: > 50 µg/mL |
| NC[C@H](O)[C@H](c1ccccc1)n1ccc2cc(F)ccc21 (racemic) | 32% | – | – | – |
| OC1(c2ccc(Cl)cc2)c2ccccc2C2=NCCN21 (stereo not given) | – | – | 22.1% | – |
| CC(C)NC[C@H](O)[C@H](c1ccccc1)n1ccc2ccccc21 (racemic) | 13% | – | – | – |
| O[C@@H](CNCc1ccccc1)[C@H](c1ccccc1)n1ccc2ccccc21 (racemic) | 26% | – | – | – |
| O[C@@H](CN1CCNCC1)[C@H](c1ccccc1)n1ccc2ccccc21 (racemic) | 34% | – | – | – |
| CNC[C@H](O)[C@H](c1ccccc1)n1c(C)cc2ccccc21 (racemic) | 45% | – | – | – |
| O[C@@H](CNCc1ccncc1)[C@H](c1ccccc1)n1ccc2ccccc21 (racemic) | 24% | – | – | – |
| CNC[C@@H](O)[C@H](c1ccccc1)n1ccc2ccccc21 (stereo in doubt) [listing 2 of 2 here] | – | – | 7% | – |
| CNC[C@H](O)[C@H](c1ccccc1)n1ccc2cc(Cl)ccc21 (racemic) | – | 10 nM | – | Ratio IC50 (MDCK-Net6): 0.2; IC50 [4]: 49 nM |
